In general, IC50 refers to the concentration that gives 50% inhibition.

The assay concerns the target human NaV 1.8 (Homo sapiens, UniProt Q9Y5Y9). The experiment in a line: E-VIPR assay detecting and measuring NaV inhibition properties. To be noted: HEK cells expressing truncated human NaV 1.8. The class given is cell-based. Put shortly:
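HEK cells expressing truncated, fully active human NaV1.8, with KIR2.1 BacMam co-transduction, were loaded with CC2-DMPE/DiSBAC6(3) voltage-sensing dyes for 20 min at room temperature. Compounds were tested in 11-point 3-fold dilutions (300 nM top final), optionally with 25% human serum, under electrical stimulation with FRET read-out.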

The mark [1] stands for this setting: no human serum, read-out: IC50 in the E-VIPR Assay.

Where two headings read alike, the source gives them in different places.

Chain of human NaV 1.8 (Q9Y5Y9 126-399 limits assumed): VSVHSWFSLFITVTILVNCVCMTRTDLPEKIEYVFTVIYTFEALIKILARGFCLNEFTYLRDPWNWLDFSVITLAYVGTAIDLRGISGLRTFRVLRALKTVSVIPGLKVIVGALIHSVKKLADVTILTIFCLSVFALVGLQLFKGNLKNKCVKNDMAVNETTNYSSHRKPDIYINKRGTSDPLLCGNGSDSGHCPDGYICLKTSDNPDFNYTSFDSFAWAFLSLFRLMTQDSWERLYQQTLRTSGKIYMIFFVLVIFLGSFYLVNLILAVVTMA
Chain of human NaV 1.8 (Q9Y5Y9 660-890 limits assumed): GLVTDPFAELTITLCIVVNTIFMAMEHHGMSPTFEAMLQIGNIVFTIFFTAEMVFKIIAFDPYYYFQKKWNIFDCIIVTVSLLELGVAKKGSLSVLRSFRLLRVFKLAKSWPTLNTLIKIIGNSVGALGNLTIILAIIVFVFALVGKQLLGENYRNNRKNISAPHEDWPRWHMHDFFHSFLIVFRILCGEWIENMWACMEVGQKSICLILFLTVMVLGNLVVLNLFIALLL
Chain of human NaV 1.8 (Q9Y5Y9 1148-1722 limits assumed): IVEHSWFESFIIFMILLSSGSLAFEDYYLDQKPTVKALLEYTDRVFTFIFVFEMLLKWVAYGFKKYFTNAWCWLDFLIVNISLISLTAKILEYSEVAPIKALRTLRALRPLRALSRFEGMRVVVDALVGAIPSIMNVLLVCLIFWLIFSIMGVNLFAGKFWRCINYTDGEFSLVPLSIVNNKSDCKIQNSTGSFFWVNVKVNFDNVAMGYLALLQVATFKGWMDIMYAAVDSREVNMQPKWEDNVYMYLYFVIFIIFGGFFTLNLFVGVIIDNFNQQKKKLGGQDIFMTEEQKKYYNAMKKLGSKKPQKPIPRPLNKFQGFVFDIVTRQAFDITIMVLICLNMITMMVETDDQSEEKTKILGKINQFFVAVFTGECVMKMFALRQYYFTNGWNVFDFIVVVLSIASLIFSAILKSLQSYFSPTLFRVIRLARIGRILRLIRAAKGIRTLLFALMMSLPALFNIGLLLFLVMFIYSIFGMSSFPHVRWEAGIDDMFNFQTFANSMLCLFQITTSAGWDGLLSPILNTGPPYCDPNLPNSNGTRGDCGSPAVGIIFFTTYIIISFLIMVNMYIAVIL

Consider `COc1c([C@H]2[C@H](C(=O)Nc3cc(C)nn3CCC#N)O[C@@](C)(C(F)(F)F)[C@H]2C)ccc(F)c1F` [Compound 292, (2R,3S,4S,5R)-N-(1-(2-cyanoethyl)-3-methyl-1H-pyrazol-5-yl)-3-(3,4-difluoro-2-methoxyphenyl)-4,5-dimethyl-5-(trifluoromethyl)tetrahydrofuran-2-carboxamide], for which, under setting [1], the IC50 was no less than 1000 nM.
In the case of `CN=S(C)(=O)c1cc(NC(=O)[C@H]2O[C@](C)(C(F)(F)F)[C@H](C)[C@@H]2c2ccc(F)c(F)c2OC)ccn1` (relative stereo) [Compound 527, rel-(2S,3R,4R,5S)-3-(3,4-difluoro-2-methoxyphenyl)-N-(2-(N,S-dimethylsulfonimidoyl)pyridin-4-yl)-4,5-dimethyl-5-(trifluoromethyl)tetrahydrofuran-2-carboxamide], the IC50 under setting [1] lay within 100 to 1000 nM.
Turning to `COc1c([C@H]2[C@H](C(=O)Nc3cc(C(C)(O)CF)ncn3)O[C@@](C)(C(F)(F)F)[C@H]2C)ccc(F)c1F` (single isomer, unassigned) [Compound 228, rel-(2R*,3S*,4S*,5R*)-3-(3,4-difluoro-2-methoxyphenyl)-N-(6-(1-fluoro-2-hydroxypropan-2-yl)pyrimidin-4-yl)-4,5-dimethyl-5-(trifluoromethyl)tetrahydrofuran-2-carboxamide], the IC50 under setting [1] fell in the range of 10 to 100 nM.
On to `COc1c([C@@H]2[C@@H](C(=O)Nc3ccnc(C(C)O)c3)O[C@](C)(C(F)(F)F)[C@@H]2C)ccc(F)c1F` (single isomer, unassigned) [Compound 531], for which the IC50 (in the presence of human serum (compound numbers followed by *), read-out: IC50 in the E-VIPR Assay, performed in the presence of human serum) was no less than 1000 nM.
For the compound `COc1c([C@H]2[C@H](C(=O)Nc3ccc(-c4ncco4)nc3)O[C@@](C)(C(F)(F)F)[C@H]2C)ccc(F)c1F` [Compound 399, (2R,3S,4S,5R)-3-(3,4-difluoro-2-methoxyphenyl)-4,5-dimethyl-N-(6-(oxazol-2-yl)pyridin-3-yl)-5-(trifluoromethyl)-tetrahydrofuran-2-carboxamide], the IC50 under setting [1] lay within 10 to 100 nM.
As to `C[C@H]1[C@@H](c2ccc(F)c(F)c2O)[C@H](C(=O)Nc2ccc(C(N)=O)nc2)O[C@@]1(C)C(F)(F)F` [Compound 649, 5-[[(2R,3S,4S,5R)-3-(3,4-difluoro-2-hydroxy-phenyl)-4,5-dimethyl-5-(trifluoromethyl)tetrahydrofuran-2-carbonyl]amino]pyridine-2-carboxamide], the IC50 under setting [1] was 100 to 1000 nM.
Same read-out and setting: for `CCOc1c(C2C(C(=O)Nc3ccnc(S(C)(=N)=O)c3)OC(C)(C(F)(F)F)C2C)ccc(F)c1F` (single isomer, unassigned) [Compound 110, 3-(2-ethoxy-3,4-difluoro-phenyl)-4,5-dimethyl-N-[2-(methylsulfonimidoyl)-4-pyridyl]-5-(trifluoromethyl)tetrahydrofuran-2-carboxamide] the value was less than 10 nM; for `COc1c([C@H]2[C@H](C(=O)Nc3ccc(C(F)CO)nc3)O[C@@](C)(C(F)(F)F)[C@H]2C)ccc(F)c1F` (single isomer, unassigned) [Compound 438, rel-(2R*,3S*,4S*,5R*)-3-(3,4-difluoro-2-methoxyphenyl)-N-(6-(1-fluoro-2-hydroxyethyl)pyridin-3-yl)-4,5-dimethyl-5-(trifluoromethyl)tetrahydrofuran-2-carboxamide], 10 to 100 nM.
Same read-out and setting: next, `C[C@@H]1[C@H](c2ccc(F)c(F)c2OC(F)F)[C@@H](C(=O)Nc2cc(S(C)(=O)=O)ccn2)O[C@]1(C)C(F)(F)F` (single isomer, unassigned) [Compound 71]: no less than 1000 nM.
The same measure, in the same setting: for `C[C@H]1[C@@H](c2ccc(F)c(F)c2OCCO)[C@H](C(=O)Nc2ccn(C)c(=O)c2)O[C@@]1(C)C(F)(F)F` [Compound 541, (2R,3S,4S,5R)-3-(3,4-difluoro-2-(2-hydroxyethoxy)phenyl)-4,5-dimethyl-N-(1-methyl-2-oxo-1,2-dihydropyridin-4-yl)-5-(trifluoromethyl)tetrahydrofuran-2-carboxamide] the value was 10 to 100 nM.
Turning to `COc1c([C@H]2[C@H](C(=O)NCc3cc(C(N)=O)co3)O[C@@](C)(C(F)(F)F)[C@H]2C)ccc(F)c1F` [Compound 286, 5-(((2R,3S,4S,5R)-3-(3,4-difluoro-2-methoxyphenyl)-4,5-dimethyl-5-(trifluoromethyl)tetrahydrofuran-2-carboxamido)methyl)furan-3-carboxamide], under setting [1], the IC50 was no less than 1000 nM.
The same measure, in the same setting: for `Cc1cnc(COc2c([C@H]3[C@H](C(=O)Nc4cccnc4)O[C@@](C)(C(F)(F)F)[C@H]3C)ccc(F)c2F)n1C` [Compound 651, (2R,3S,4S,5R)-3-(2-((1,5-dimethyl-1H-imidazol-2-yl)methoxy)-3,4-difluorophenyl)-4,5-dimethyl-N-(pyridin-3-yl)-5-(trifluoromethyl)tetrahydrofuran-2-carboxamide] the value was less than 10 nM.
As for `COc1c(C2C(C(=O)Nc3cnnc(CO)c3)OC(C)(C(F)(F)F)C2C)ccc(F)c1F` (stereo not shown) [Compound 18, 3-(3,4-difluoro-2-methoxy-phenyl)-N-[6-(hydroxymethyl)pyridazin-4-yl]-4,5-dimethyl-5-(trifluoromethyl)tetrahydrofuran-2-carboxamide], under setting [1], the IC50 is less than 10 nM.
Still for that read-out and setting: next, `COc1c([C@H]2[C@H](C(=O)Nc3ccnc(C(C)O)c3)O[C@@](C)(C(F)(F)F)[C@H]2C)ccc(F)c1F` (single isomer, unassigned) [Compound 532]: less than 10 nM; `CNCC(=O)N(C)c1cc(NC(=O)[C@@H]2O[C@@](C)(C(F)(F)F)[C@@H](C)[C@H]2c2ccc(F)c(F)c2OC)ccn1` [Compound 486, (2R,3S,4S,5R)-3-(3,4-difluoro-2-methoxyphenyl)-4,5-dimethyl-N-(2-(N-methyl-2-(methylamino)acetamido)pyridin-4-yl)-5-(trifluoromethyl)tetrahydrofuran-2-carboxamide]: less than 10 nM; `COCC(O)c1cc(NC(=O)[C@@H]2O[C@@](C)(C(F)(F)F)[C@@H](C)[C@H]2c2ccc(F)c(F)c2OC)ccn1` (single isomer, unassigned) [Compound 222, rel-(2R*,3S*,4S*,5R*)-3-(3,4-difluoro-2-methoxyphenyl)-N-(2-(1-hydroxy-2-methoxyethyl)pyridin-4-yl)-4,5-dimethyl-5-(trifluoromethyl)tetrahydrofuran-2-carboxamide]: less than 10 nM.
Still for that read-out and setting: for `COc1c([C@H]2[C@H](C(=O)NC(C)C(N)=O)O[C@@](C)(C(F)(F)F)[C@H]2C)ccc(F)c1F` (stereo partly drawn) [Compound 271, (2R,3S,4S,5R)-N-(1-amino-1-oxopropan-2-yl)-3-(3,4-difluoro-2-methoxyphenyl)-4,5-dimethyl-5-(trifluoromethyl)tetrahydrofuran-2-carboxamide] the value was no less than 1000 nM; for `COc1c([C@H]2[C@H](C(=O)Nc3ccc(CC4CCOCC4)nc3)O[C@@](C)(C(F)(F)F)[C@H]2C)ccc(F)c1F` [Compound 404, (2R,3S,4S,5R)-3-(3,4-difluoro-2-methoxyphenyl)-4,5-dimethyl-N-(6-((tetrahydro-2H-pyran-4-yl)methyl)pyridin-3-yl)-5-(trifluoromethyl)-tetrahydrofuran-2-carboxamide], 100 to 1000 nM.
For the compound `Cc1ccc(NC(=O)C2OC(C)(C(F)(F)F)C(C)C2c2ccc(F)c(F)c2OC2CC(O)C2)cn1` [Compound 661, (2R,3S,4S,5R)-3-(3,4-difluoro-2-((1S,3R)-3-hydroxycyclobutoxy)phenyl)-4,5-dimethyl-N-(6-methylpyridin-3-yl)-5-(trifluoromethyl)tetrahydrofuran-2-carboxamide], the IC50 under setting [1] is 10 to 100 nM.
For `Cc1nocc1NC(=O)[C@@H]1O[C@@](C)(C(F)(F)F)[C@@H](C)[C@H]1c1ccc(F)c(F)c1OCCN1CC2CC(C1)O2` [Compound 633, (2R,3S,4S,5R)-3-(2-(2-(6-oxa-3-azabicyclo[3.1.1]heptan-3-yl)ethoxy)-3,4-difluorophenyl)-4,5-dimethyl-N-(3-methylisoxazol-4-yl)-5-(trifluoromethyl)tetrahydrofuran-2-carboxamide], the IC50 under setting [1] fell in the range of 10 to 100 nM.
Take `CCOc1c([C@H]2[C@H](C(=O)Nc3ccn4nnnc4c3)O[C@@](C)(C(F)(F)F)[C@H]2C)ccc(F)c1C` (stereo in doubt) [Compound 121, rac-(2R,3S,4S,5R)-3-(2-ethoxy-4-fluoro-3-methylphenyl)-4,5-dimethyl-N-(tetrazolo[1,5-a]pyridin-7-yl)-5-(trifluoromethyl)tetrahydrofuran-2-carboxamide]: the IC50 under setting [1] is less than 10 nM.
Same read-out and setting: for `CNS(=O)(=O)c1ccc(NC(=O)[C@@H]2O[C@@](C)(C(F)(F)F)[C@@H](C)[C@H]2c2ccc(F)c(F)c2OC)cn1` [Compound 236, (2R,3S,4S,5R)-3-(3,4-difluoro-2-methoxy-phenyl)-4,5-dimethyl-N-[6-(methylsulfamoyl)-3-pyridyl]-5-(trifluoromethyl)tetrahydrofuran-2-carboxamide] the value was 10 to 100 nM.
Still for that read-out and setting: next, `COc1c([C@H]2[C@H](C(=O)Nc3ccnc(N4CCN(C)CC4=O)c3)O[C@@](C)(C(F)(F)F)[C@H]2C)ccc(F)c1C(F)F` (single isomer, unassigned) [Compound 162]: less than 10 nM; `CCOc1c([C@@H]2[C@@H](C(=O)Nc3ccnc(S(C)(=O)=O)c3)O[C@](C)(C(F)(F)F)[C@@H]2C)ccc(F)c1F` (stereo in doubt) [Compound 4, rel-(2S,3R,4R,5S)-3-(2-ethoxy-3,4-difluorophenyl)-4,5-dimethyl-N-(2-(methylsulfonyl)pyridin-4-yl)-5-(trifluoromethyl)tetrahydrofuran-2-carboxamide]: no less than 1000 nM; `C[C@H]1[C@@H](c2ccc(F)c(F)c2OC(F)F)[C@H](C(=O)Nc2ccn3nnnc3c2)O[C@@]1(C)C(F)(F)F` (single isomer, unassigned) [Compound 80]: less than 10 nM.

The values above are taken from patent US20240368135A1 (VERTEX PHARMACEUTICALS INCORPORATED, priority 2021, published 2024).
